Test results published in US20200281944A1, “Combinations Of Lanosterol Or 25-Hydroxycholesterol Including Derivatives Thereof Useful In The Treatment Of Lens Disorders” (priority 2017, published 2020).
Where a name gives a salt, the structure may show the parent alone.

How the values were obtained:
presbyopia = settings: cited from earlier work
lens opacification = settings: cell cultures, in the presence of guanidine; cited from earlier work

CC(C)=CCC[C@@H](C)[C@H]1CC[C@@]2(C)C3=C(CC[C@]12C)[C@@]1(C)CC[C@H](OP(=O)(O)O)C(C)(C)[C@@H]1CC3 (as salt: phosphate)
melting point: 204 to 205 °C

C[N+](C)(C)CCOC(=O)CCCC[C@@H]1CCSS1 [EV06, Lipoic acid choline ester]
binocular near acuity (presbyopia; Lipoic acid choline ester 1.5%): improved | distance corrected near vision acuity (DCNVA) efficacy measures (presbyopia; in vivo): improvement in all

NCCC(=O)N[C@@H](Cc1c[nH]cn1)C(=O)O [L-carnosine, β-alanyl-L-histidine]
prevention of lens opacification (lens opacification): 50 to 60%
